This note sets out measurements from patent publication US5935945A, “Methods of treating or preventing cardiac arrhythmia” (Merck & Co., Inc., priority 1997, dated 1999).

In the experiment the target is T1, hKv1.5 (Homo sapiens, UniProt P22460).
T1 construct: expressed in transfected cells
T1 sequence (P22460 whole entry): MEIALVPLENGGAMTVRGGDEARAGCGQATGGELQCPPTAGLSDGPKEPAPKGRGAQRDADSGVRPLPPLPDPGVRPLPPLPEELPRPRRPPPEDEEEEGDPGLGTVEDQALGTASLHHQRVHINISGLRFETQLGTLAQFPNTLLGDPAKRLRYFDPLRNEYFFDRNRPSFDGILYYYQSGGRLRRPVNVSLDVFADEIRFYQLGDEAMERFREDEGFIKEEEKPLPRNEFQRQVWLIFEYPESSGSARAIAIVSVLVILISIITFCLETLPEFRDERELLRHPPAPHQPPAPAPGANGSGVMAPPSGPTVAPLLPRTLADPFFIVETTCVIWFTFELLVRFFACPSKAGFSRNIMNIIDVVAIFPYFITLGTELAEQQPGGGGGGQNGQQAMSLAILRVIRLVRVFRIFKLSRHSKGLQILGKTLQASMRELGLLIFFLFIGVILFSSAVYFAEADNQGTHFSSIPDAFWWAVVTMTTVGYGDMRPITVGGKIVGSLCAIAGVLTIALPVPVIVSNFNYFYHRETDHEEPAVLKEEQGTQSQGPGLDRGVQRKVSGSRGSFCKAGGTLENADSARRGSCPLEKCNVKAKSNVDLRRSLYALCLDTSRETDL
Briefly: Voltage-clamp measurement of hKv1.5 current expressed in Chinese hamster ovary (CHO) cells. The experiment is classed as cell-based. Conditions: rested state block, first pulse; 150 ms pulses to +40 mV from -80 mV; room temperature (22-24° C); read-out: Rested State IC50, CHO Cells Expressing hKv1.5. Here is the method: Expression of Kv1.5 in CHO Cells
CHOKI cells were plated at 2.7×10^4 cells/60 mm dish and incubated at 37° C., in a 5% CO2 environment for three days. Cells were then washed twice and covered with 3 ml of OptiMEM medium (Gibco). Plasmid/DOTAP solution (consisting of […] of Kv1.5 in pcDNAI/Neo and […] DOTAP transfection reagent (Boehringer Mannheim) in 1 ml of OptiMEM) was added dropwise to each plate while swirling. Plates were incubated overnight and the media then changed to 5 mls of F12 (Gibco) supplemented with 10% FBS (Sigma), 1,000 U/ml penicillin […] streptomycin (Gibco), and 2 mM glutamine (Gibco). After two more days, the cells were trypsinized and replated on 100 mm dishes in supplemented F12 media including 1 mg/ml G418 (Gibco). The medium was changed daily until nontransfected cells were killed. Cell lines were grown from individual clones and tested for expression of Kv1.5 using both the ^86 RB efflux assay and voltage clamp protocols. […] These cells were maintained in culture and on each experimental day were freshly isolated by mild trypsinization.
The patch-clamp technique was used to record ionic currents in the whole-cell configuration. Patch pipettes were obtained using a two stage puller from square bore (1.0 mm o.d.) borosillicate capillary tubing. Pipettes were filled with the following solution (in mM/L): 110 K-Gluconate or K-Aspartate, 20 KCl, 5 MgATP, 5 EGTA, 5-10 HEPES, pH 7.2. […] Following seal formation, the membrane was ruptured by gentle suction to establish the whole-cell configuration, and negative pressure was maintained on the pipette using a 1 ml gas-tight syringe attached via air tight tubing to the suction port of the microelectrode holder.
Kv1.5 currents were elicited by 150 ms depolarizing test pulses to +40 mV from a holding potential of -80 mV. The effects of test agents were assessed at steady-state. Data was analyzed as % block from control current amplitude. […] All experiments were performed at room temperature (22-24° C.). […]
For the compound `COc1ccc(-n2nc(Sc3ccc(C)cc3)c(C)c(C#N)c2=O)cc1` [Compound B], the IC50 was determined as 120 nM. As to `Cc1cc(C)c(CP(=O)(c2ccccc2)c2ccccc2)c(-c2ccc(F)c(C)c2)c1` [Compound C, 2-(Diphenylphosphinylmethyl)-4'-fluoro-3,5,3'-trimethyl-biphenyl], the IC50 was found to be 278 nM. For `COc1ccc(-n2nc(Sc3ccc(Cl)cc3)c(C)c(C#N)c2=O)cc1` [Compound A, 6-(4-Chlorophenylthio)-2-(4-methoxyphenyl)-5-methyl-3-oxo-2,3-dihydropyridazine-4-carbonitrile] the value was 230 nM.
